Compound	melting point [°C]
COCN1C(C)=C(C(=O)O)C(c2cccc(Cl)c2Cl)C(C(=O)OCOC(=O)C(C)(C)C)=C1C (single isomer, unassigned; (+))	89 to 90
CC(C)OC(=O)CC1SCN(c2ccc(Cl)c(Cl)c2)C1=O (stereo unspecified)	54 to 56
COc1ccccc1N1CCN(CCCNC2=CC(=O)N(C)S(=O)(=O)N2C)CC1	137 to 139
Oc1cc(O)c(C23CC4CC(CC(C4)C2)C3)cc1C12CC3CC(CC(C3)C1)C2	146
CCOC(=O)c1cc2c3n(ccc-2n1)CC(C(C)(C)C)=N3	276 to 278
OCc1cccc2oc3c(c12)CCCC3	43 to 45
O=C(CN1CCN(c2nccs2)CC1)N1CCC(O)(c2cccc(C(F)(F)F)c2)CC1	157 to 158
O=c1cc(-c2ccncn2)nc2n1CCCCC2Br (racemic)	117 to 119
CCCNC(=O)Nc1ccc(C(=O)OC)c(NC(=O)NC(C)C)c1	94 to 95
N=C(N)NCCSCc1nccs1	120 to 122
CCCCCCCCCCCCc1ccccc1C(SC(CC(=O)O)C(=O)O)C(=O)O (stereo unspecified)	85 to 89
COC(=O)c1cc2c(cc1O)OCO2	100 to 101
CON=C(C(=O)O)c1nc(NC=O)c(Cl)cc1Cl	164 to 165
O=C(Oc1ccccc1)N1CCC(Sc2ccncc2)CC1	102 to 104
CC(=O)OCCN1C2=NCCN2C(=O)c2ccccc21	124 to 126
O=c1cc(C2(Br)CCCCC2)oc2c(CBr)cccc12	134 to 135
CNN(C)C(=S)Nc1ccc(Cl)cc1	103 to 104
CCCCCCCCN1CC(C(=O)OC)N(S(=O)(=O)c2ccc(NC(=O)c3ccc(Cl)cc3)cc2)CC1=O (stereo unspecified)	171 to 173
CNc1cccc(OC)c1N	60 to 61
CCOC(=O)C(O)CCn1cnc2c(Cl)nc(N)nc21 (stereo unspecified)	163 to 164
CC(C)(C)c1nc(-c2ncn3c2COc2cc(F)ccc2-3)no1	133 to 135
CC(=O)NCC1CN(c2ccc(N3CCN(C(=O)COC(=O)CN4CCN(C)CC4)CC3)c(F)c2)C(=O)O1 (stereo unspecified)	128 to 129
CCCCCCCC(=O)N(CCc1ccc(CCO)cc1)S(=O)(=O)c1ccc(Cl)cc1	55

Further lines, results first:

melting point [°C]	Compound
144 to 145	Cc1ccc(C(=O)c2cc(-c3ccncc3)c(N3CCOCC3)s2)cc1
125 to 127	COC(=O)C(=CNC1CC1)C(=O)C=Cc1ccc(OC)cc1
46 to 48	COCC1CN(c2ccc(C3CC4C=CC3C4)cc2)C(=O)O1 (racemic)
174 to 178	CSC1C(=O)Nc2ccc(Oc3ccc(C(F)(F)F)c(Cl)c3)cc21 (stereo unspecified)
166 to 167	FC(F)(F)Oc1cccc(COc2cccc(-c3nnc(Nc4ccc(Cl)c(Cl)c4)s3)c2)c1
195 to 198	Cc1ccc(Oc2ccc(-c3noc(=O)[nH]3)cc2)c(O)c1
119 to 120	CCOC(=O)C1CCN(c2nnc(NCc3ccc4c(c3)OCO4)c3cnccc23)CC1
102 to 105	COc1ccc2c(c1)c(Cc1cc(=O)n(C3CCCCC3)[nH]1)c(C)n2Cc1ccccc1
79	CCCCc1nc(SCCF)c(C(=O)OCC)n1Cc1ccc(-c2ccccc2C(=O)O)cc1
81 to 82	CCCc1c(OCCCCC#N)ccc(C(=O)c2ccccc2O)c1O
90 to 92	CCCCCCNc1nc(-c2ccccc2)c(-c2ccc(=O)n(C(C)C)n2)s1
50.5 to 51.3	Cc1ccc(C(C#N)=C2CCCCC2)cc1
148 to 149	C=CCOc1ccccc1OCCNCC(O)COc1cccc2c1CC(=O)N2 (stereo unspecified)
160 to 162	CN(c1cc(OCCO)cc2cc(C3=NCC(CN4CCSCC4)S3)[nH]c12)S(=O)(=O)c1ccccn1 (stereo unspecified)
180	COc1cc(C=O)cc(C#N)c1O
106 to 109	CCOC(=O)c1ccc2c(cnn2CCC#N)c1
157 to 159	O=C(CCl)c1ccc(-c2ccc(S(=O)(=O)C(F)F)cc2)cc1
> 350	O=C1N=c2cc(O)c(O)cc2=NC1=O

— a melting point compilation (Tetko et al.; mined from patent text by program, amines drawn as free bases though some values may be those of a salt)
